Measurements published in patent US7759071B2, “Determination of apoptotic products in tumor patients undergoing therapy” (Roche Diagnostics, priority 1998, dated 2010).

Experiments:
[1] = tested on: metastasising pancreatic carcinoma; assay: Clinical course of the patient during chemotherapy; type: in vivo; conditions: one patient, FIG. 9
From the text: The effectiveness of tumour therapy can be determined by means of the remission rate on the basis of image generating processes (X-ray, computer tomography). By definition a complete remission is understood as the complete disappearance of the tumour for at least eight weeks and partial remission means a regression of the tumour manifestations by more than 50% with regard to their volume; no change reflects the state between a 50% decrease and a 25% increase of the tumour mass; progression denotes a progression of more than 25% (UICC criteria).

[2] = tested on: metastasising pancreatic carcinoma; assay: Nucleosome concentration in serum (Cell Death Detection plus ELISA) of a patient during chemotherapy; type: in vivo; conditions: one patient, FIG. 9; for nucleosome concentration in the serum after start of new therapy scheme: combination folic acid 300 mg/m^2 and 5-fluorouracil 500 mg/m^2 on each of days 1 to 5, only a partial decrease afterwards; for nucleosome concentration in the serum at the beginning of a cycle: combination Gemcitabine 1000 mg/m^2 (day 1, 8, 15) and Cisplatin 50 mg/m^2 (day 1, 15), then decreased slowly
Description: The Cell Death Detection^plus ELISA (Boehringer Mannheim, Cat. No. 1 774 425) is based on the quantitative sandwich enzyme immunoassay principle. Two monoclonal mouse antibodies are used which are directed against DNA and histones. The test can be carried out with cytoplasmic lysates, culture supernatants, plasma, serum and other body fluids and allows a specific detection of mononucleosomes and oligonucleosomes. The description given here applies to measurements in liquid media:
A 20 μl aliquot of the material to be tested is pipetted into a well of a streptavidin-coated microtitre plate (MTP). 80 μl of an immunoreagent composed of biotinylated anti-histone antibodies, peroxidase-labelled anti-DNA antibodies and incubation buffer (1% BSA, 0.5% Tween, 1 mM EDTA in PBS) is added, covered with an adhesive foil and incubated for 2 hours on a MTP shaker (500 rpm). During this incubation period the anti-histone antibody reacts with the histone component of the nucleosomes and immobilizes the complex via the biotin on the streptavidin-coated microtitre plate. In addition the anti-DNA antibody binds to the DNA component of the nucleosomes. In this process ds as well as ss DNA is recognized. After removing the antibody that is still unbound by washing three times with 300-400 μl incubation buffer in each case, the immobilized complexes are incubated with 100 μl ABTS (2,2′-azino-di(3-ethyl-benzthiazoline sulfonate), the MTP is sealed with an adhesive foil and shaken at 250 rpm. The substrate reacts with the peroxidase label of the anti-DNA antibody and causes a colour change that is proportional to these antibodies. After an adequate colour development period it is photometrically quantified at d=405 nm against the substrate solution as a blank (reference wavelength d=492 nm).
Therefore absolute concentration data are not used and a scale of so-called AUs (arbitrary units) is introduced. 1000 AU equates with the highest standard level (2500 mA after 30 min); the scale is linear. This therefore takes into account the lack of knowledge about the ratio of mononucleosomes to oligonucleosomes and the resulting variability concerning the amount of binding sites of the antibodies while at the same time increasing the comparability between the tests.
After thawing attention must be paid to adjustment to room temperature and careful homogenization of the sample material. The serum samples are diluted 1:4 with incubation buffer (20 μl serum, 60 μl incubation buffer) and subsequently used in the test.
The nucleosome content was measured in patients under chemotherapy before therapy and on the second and fourth day and one week after administration of the first dose and in addition weekly or before the start of the next treatment cycle.

[3] = combination folic acid and 5-fluorouracil, continuous increase of CEA
[4] = combination Gemcitabine and Cisplatin

`O=c1[nH]cc(F)c(=O)[nH]1` [5-fluorouracil] was tested, and the “clinical course under therapy” value [1, 3] was “progressive course” and the “nucleosome concentration in the serum after start of new therapy scheme” value [2] was “rapid increase”.
`N.N.[Cl][Pt][Cl]` [Cisplatin] was tested, and the “clinical course under therapy” value [1, 4] was “clinical progressive deterioration” and the “nucleosome concentration in the serum at the beginning of a cycle” value [2] was “increased rapidly”.
`Nc1ccn([C@@H]2O[C@H](CO)[C@@H](O)C2(F)F)c(=O)n1` [Gemcitabine] was tested, and the “clinical course under therapy” value [1, 4] was “clinical progressive deterioration” and the “nucleosome concentration in the serum at the beginning of a cycle” value [2] was “increased rapidly”.
With `Nc1nc2ncc(CNc3ccc(C(=O)N[C@@H](CCC(=O)O)C(=O)O)cc3)nc2c(=O)[nH]1` [folic acid] the “clinical course under therapy” value [1, 3] was “progressive course” and the “nucleosome concentration in the serum after start of new therapy scheme” value [2] was “rapid increase”.
